Values of other authors, collected in patent US10493089B2, “Solid composition comprising amorphous sofosbuvir” (priority 2014, dated 2019).

Row | Compound | relative humidity at which it deliquesces (amorphous form compared to crystalline forms) | behaviour under stress conditions (40° C., relative humidity 75%)
1 | CC(C)OC(=O)[C@H](C)N[P@](=O)(OC[C@H]1O[C@@H](n2ccc(=O)[nH]c2=O)[C@](C)(F)[C@@H]1O)Oc1ccccc1 [Amorphous sofosbuvir] | above 50% | –
2 | CC(C)OC(=O)[C@H](C)N[P@](=O)(OC[C@H]1O[C@@H](n2ccc(=O)[nH]c2=O)[C@](C)(F)[C@@H]1O)Oc1ccccc1 [sofosbuvir, (S)-isopropyl 2-(((S)-(((2R,3R,4R,5R)-5-(2,4-dioxo-3,4-dihydropyrimidin-1(2H)-yl)-4-fluoro-3-hydroxy-4-methyltetrahydrofuran-2-yl)methoxy)(phenoxy)phosphoryl)amino)propanoate] | – | deliquesces after a few hours
